A short description of data set [1]: Microsomal stability (rat). The format is in vitro ADME. As to conditions: rat microsomes.
Data set [2] concerns Asexual parasites of P. falciparum strain 3D7. Put plainly: In vitro drug activity on asexual parasites (SYBR Green assay). The class given is cell-based. As to conditions: Plasmodium falciparum, P. falciparum 3D7 asexual stage, 72 h, read-out: Asexual EC50. On the procedure:
Cell culture. Asexual parasites of P. falciparum strain 3D7 were cultured as described previously [Trager W, et al., Journal of Parasitology 2005, 91: 484-486]. Stage III-V gametocytes were selected and enriched with 3-day treatment with 50 mM N-acetylglucosamine (NAG) and the following Percoll density gradient centrifugation after gametocyte production [Tanaka T Q, et al., Molecular and Biochemical Parasitology, 2011, 177: 160-163]. Gametocytes of HB3 and Dd2 strains were produced and then set up for assay in a similar process. HepG2 cells (ATCC, cat. no. 77400) were cultured in 175-cm^2 tissue culture flasks with 30 ml growth medium at 37° C. in a 5% CO2 humidified atmosphere. Growth medium was made with Dulbecco's Modified Eagle Medium with 10% fetal bovine serum (FBS). Growth medium was replaced every other day and cells were passed at 75% confluence.
Asexual parasites of P. falciparum strain 3D7 were cultured as described previously (Trager, W. et al., J. Parasitol. 2005, 91(3): 484-486). Drug activity on asexual stage parasites was tested using a SYBR Green assay as described previously (Eastman, R. T. et al., Antimicrob. Agents Chemother. 2013, 57(1): 425-435; Smilkstein, M. et al., Antimicrob. Agents Chemother. 2004, 48(5): 1803-1806). Briefly, parasites were diluted to 0.5% parasitemia in complete culture medium with 2% hematocrit and drugs diluted in DMSO (<0.5%) and were loaded into a 96-well plate (200 μl/well). No drug and RBC alone wells were included as positive and background controls, respectively, and each testing condition was examined in duplicated. After 72 h incubation under the standard culture condition and a freeze-thaw lysis step at −80° C. and room temperature, 100 μl/well of lysis buffer containing SYBR Green I was added to the parasite culture and incubated for 30 min at room temperature. The fluorescence of each well was measured at 520 nm following excitation at 490 nm using a FLUOstar Optima™ microplate reader (BMG Labtech).
Compounds were screened against gametocytes and asexual parasites as described in Examples 1 and 2.

Another data set is described as follows: Solubility pH 7.4. The class given is physicochemical. As to conditions: aqueous buffer.
The mark [3] stands for this setting: Table 1, read-out: Microsomal Stability (rat) T1/2.

Converted amounts (≈) assume the structure as drawn. Like-named read-outs stand apart in the source and are kept apart here. A value given as a limit tells only on which side of the number the result lay.

As usually defined, the EC50 is the concentration giving half of the maximal effect. By solubility is commonly meant the dissolved amount per volume that the medium holds. A lower solubility goes with little dissolved substance. `Cc1ccccc1-n1c(=N)n(C)c2cnc3ccc(-c4ccc(Cl)cc4)cc3c21` [Compound 81, 8-(4-chlorophenyl)-3-methyl-1-(o-tolyl)-1,3-dihydro-2H-imidazo[4,5-c]quinolin-2-imine]: the half-life in data set [1] (setting [3]) was above 30 min. Further, in data set [2] (Table 1), the EC50 stood at 1640 nM. This compound also returned a solubility in the data set “Solubility pH 7.4” (Table 1) above 39 µg/mL. Regarding `COc1cc(-c2ccc3ncc4c(c3c2)n(-c2cncnc2C)c(=N)n4C)ccc1F`, in data set [2] (Table 3), the EC50 came to 52.5 nM. Moreover, the solubility in “Solubility pH 7.4” (Table 3) was below 1 µg/mL. Turning to `Cc1cc(N2CCNC(=O)C2)c(C#N)cc1-n1c(=N)n(C)c2cnc3ccc(-c4ccc(Cl)cc4)cc3c21` [Compound 133, 5-(8-(4-chlorophenyl)-2-imino-3-methyl-2,3-dihydro-1H-imidazo[4,5-c]quinolin-1-yl)-4-methyl-2-(3-oxopiperazin-1-yl)benzonitrile], the EC50 in data set [2] (Table 1) is 6.26 nM. Turning to `Cn1c(=N)n(C2CCN(C3CCNCC3)CC2)c2c3cc(-c4ccc(Cl)cc4)ccc3ncc21` [Compound 97, 1-([1,4′-bipiperidin]-4-yl)-8-(4-chlorophenyl)-3-methyl-1,3-dihydro-2H-imidazo[4,5-c]quinolin-2-imine], in data set [1] (setting [3]), the half-life is above 30 min. Further, in data set [2] (Table 1), the half-maximal effective concentration (EC50) was determined as 5100 nM. In “Solubility pH 7.4” (Table 1), this compound displayed a solubility above 47 µg/mL. With `COC(=O)/N=c1\n(C)c2cnc3ccc(-c4cccc(F)c4)cc3c2n1-c1cc(C#N)c(N2CCOCC2)cc1C` [Compound 148, Methyl (E)-(1-(5-cyano-2-methyl-4-morpholinophenyl)-8-(3-fluorophenyl)-3-methyl-1,3-dihydro-2H-imidazo[4,5-c]quinolin-2-ylidene)carbamate], the EC50 in data set [2] (Table 1) amounted to 236 nM.

Consider `Cn1/c(=N\c2cncnc2)n(-c2cncnc2)c2c3cc(-c4cccc(F)c4)ccc3ncc21`, for which, in data set [2] (Table 3), the EC50 turned out to be 193 nM.

As for `COc1ccc(-c2ccc3ncc4c(c3c2)n(-c2cncnc2C)c(=N)n4C)cc1F`, in data set [2] (Table 3), the concentration for a half-maximal effect (EC50) amounted to 229 nM. Besides, the solubility in the data set “Solubility pH 7.4” (Table 3) is above 61 µg/mL. In the case of `Cc1cc(N2CCN(CCO)CC2)c(C#N)cc1-n1c(=N)n(C)c2cnc3ccc(-c4ccc(Cl)cc4)cc3c21` [Compound 115, 5-(8-(4-chlorophenyl)-2-imino-3-methyl-2,3-dihydro-1H-imidazo[4,5-c]quinolin-1-yl)-2-(4-(2-hydroxyethyl)piperazin-1-yl)-4-methylbenzonitrile], the half-life in data set [1] (setting [3]) is above 30 min. In data set [2] (Table 1), the EC50 came to 125 nM. Further, the solubility in the data set “Solubility pH 7.4” (Table 1) is above 55 µg/mL.

For the compound `Cn1c(=N)n(C2CCN(C3CCOCC3)CC2)c2c3cc(-c4ccc(Cl)cc4)ccc3ncc21` [Compound 57, 8-(4-chlorophenyl)-3-methyl-1-(1-(tetrahydro-2H-pyran-4-yl)piperidin-4-yl)-1,3-dihydro-2H-imidazo[4,5-c]quinolin-2-imine], the half-life in data set [1] (setting [3]) was above 30 min. Also, the EC50 in data set [2] (Table 1) turned out to be 2520 nM. In “Solubility pH 7.4” (Table 1), this compound showed a solubility above 47 µg/mL.

With `Cc1cc(N2CCC(NS(C)(=O)=O)CC2)c(C#N)cc1-n1c(=N)n(C)c2cnc3ccc(-c4ccc(Cl)cc4)cc3c21` [Compound 131, N-(1-(4-(8-(4-chlorophenyl)-2-imino-3-methyl-2,3-dihydro-H-imidazo[4,5-c]quinolin-1-yl)-2-cyano-5-methylphenyl)piperidin-4-yl)methanesulfonamide], the EC50 in data set [2] (Table 1) worked out at 16.3 nM. On the same count and under the same terms, in the case of `CCC(=O)N1CCC(N2CCC(n3c(=N)n(C)c4cnc5ccc(-c6ccc(Cl)cc6)cc5c43)CC2)CC1` [Compound 128, 1-(4-(8-(4-chlorophenyl)-2-imino-3-methyl-2,3-dihydro-1H-imidazo[4,5-c]quinolin-1-yl)-[1,4′-bipiperidin]-1′-yl)propan-1-one] it was 627 nM; in that of `Cc1cc(F)c(C#N)cc1-n1c(=N)n(C)c2cnc3ccc(-c4ccc(Cl)cc4)cc3c21` [Compound 134, 5-(8-(4-chlorophenyl)-2-imino-3-methyl-2,3-dihydro-1H-imidazo[4,5-c]quinolin-1-yl)-2-fluoro-4-methylbenzonitrile], 74.3 nM.

For `COc1ccnc(-n2c(=N)n(C)c3cnc4ccc(-c5ccc(Cl)cc5)cc4c32)n1`, the EC50 in data set [2] (Table 3) worked out at 2110 nM. In addition, the solubility in “Solubility pH 7.4” (Table 3) was below 1 µg/mL. For the compound `Cn1c(=N)n(-c2cccc(CC#N)c2)c2c3cc(-c4ccc(Cl)cc4)ccc3ncc21` [Compound 73, 2-(3-(8-(4-chlorophenyl)-2-imino-3-methyl-2,3-dihydro-1H-imidazo[4,5-c]quinolin-1-yl)phenyl)acetonitrile], the EC50 in data set [2] (Table 1) was 118 nM. On the same count and under the same terms, with `Cn1c(=N)n(-c2ccnc(C#N)c2)c2c3cc(-c4ccc(Cl)cc4)ccc3ncc21` [Compound 90, 4-(8-(4-chlorophenyl)-2-imino-3-methyl-2,3-dihydro-1H-imidazo[4,5-c]quinolin-1-yl)picolinonitrile] the figure was 224 nM; with `Cc1cc(N2C[C@@H]3CCCN[C@@H]3C2)c(C#N)cc1-n1c(=N)n(C)c2cnc3ccc(-c4ccc(Cl)cc4)cc3c21` [Compound 120, 5-(8-(4-chlorophenyl)-2-imino-3-methyl-2,3-dihydro-1H-imidazo[4,5-c]quinolin-1-yl)-4-methyl-2-((4aS,7aS)-octahydro-6H-pyrrolo[3,4-b]pyridin-6-yl)benzonitrile], 1470 nM. For `COc1ccc(-c2ccc3ncc4c(c3c2)n(-c2cncnc2C)c(=N)n4C)cc1OC`, the half-life in data set [1] (Table 3, read-out: Microsomal Stability (rat) T1/2) is above 30 min. The EC50 in data set [2] (Table 3) was determined as 25.8 nM. For `Cn1c(=N)n(-c2nccc(C(F)(F)F)n2)c2c3cc(-c4cccc(F)c4)ccc3ncc21`, in data set [2] (Table 3), the EC50 came to 202 nM. The solubility in “Solubility pH 7.4” (Table 3) was below 1 µg/mL.

Regarding `Cn1c(=N)n(-c2nccc(C(F)(F)F)n2)c2c3cc(-c4ccc(Cl)cc4)ccc3ncc21`, the EC50 in data set [2] (Table 3) was found to be 450 nM. Further, in “Solubility pH 7.4” (Table 3), the solubility was below 1 µg/mL. For the compound `Cc1cc(N2CCCC2)c(C#N)cc1-n1c(=N)n(C)c2cnc3ccc(-c4ccc(Cl)cc4)cc3c21` [Compound 111, 5-(8-(4-chlorophenyl)-2-imino-3-methyl-2,3-dihydro-1H-imidazo[4,5-c]quinolin-1-yl)-4-methyl-2-(pyrrolidin-1-yl)benzonitrile], the EC50 in data set [2] (Table 1) amounted to 801 nM. For the compound `Cc1cc(N2CCOC(C)C2)c(C#N)cc1-n1c(=N)n(C)c2cnc3ccc(-c4ccc(Cl)cc4)cc3c21` (stereo not shown) [Compound 119, 5-(8-(4-chlorophenyl)-2-imino-3-methyl-2,3-dihydro-1H-imidazo[4,5-c]quinolin-1-yl)-4-methyl-2-(2-methylmorpholino)benzonitrile], in data set [2] (Table 1), the EC50 was 352 nM. For `Cn1c(=N)n(-c2cncnc2)c2c3cc(-c4ccc(Cl)c(C#N)c4)ccc3ncc21`, in data set [2] (Table 3), the EC50 was 136 nM. Turning to `Cn1nccc1-c1ccc2ncc3c(c2c1)n(-c1cncnc1)c(=N)n3C`, in data set [2] (Table 3), the EC50 is 570 nM. Further, the concentration in solution in “Solubility pH 7.4” (Table 3) (solubility) was 36.3 µg/mL (≈ 102 µM). On the same counts, the results for `COc1cc(-c2ccc3ncc4c(c3c2)n(-c2cncnc2C)c(=N)n4C)ccc1Cl` are 50.8 nM and 1.3 µg/mL (≈ 3.02 µM).

On to `CC(=O)N1CCC(N2CCC(n3c(=N)n(C)c4cnc5ccc(-c6ccc(Cl)cc6)cc5c43)CC2)CC1` [Compound 127, 1-(4-(8-(4-chlorophenyl)-2-imino-3-methyl-2,3-dihydro-1H-imidazo[4,5-c]quinolin-1-yl)-[1,4′-bipiperidin]-1′-yl)ethan-1-one], for which, in data set [2] (Table 1), the EC50 was 1500 nM.

For the compound `COc1ccnc(-n2c(=N)n(C)c3cnc4ccc(-c5cccc(F)c5)cc4c32)n1`, the EC50 in data set [2] (Table 3) was 1310 nM. The solubility in the data set “Solubility pH 7.4” (Table 3) worked out at 6.5 µg/mL (≈ 16.2 µM).

The record behind these values is patent US20210188843A1, “QUINOLINE COMPOUNDS AND THEIR PREPARATION AND USE AS ANTIMALARIAL AGENTS” (The United States of America,as represented by the …, priority 2018, published 2021).
